Test [1] concerns Bacteria. Description: Inhibition of bacterial NDM1 expressed in Escherichia coli BL21 (DE3) expressing pET-24a-blaNDM-1 assessed as potentiation of meropenem-induced antibacterial activity by measuring reduction in meropenem MIC incubated at 37 degC for 18 hrs by spectrophotometry based checkerboard microdilution assay. (Broth dilution looks for growth in wells or tubes with falling amounts of substance.)

Test [2] has as its target Beta-lactamase NDM-1 (Escherichia coli) (UniProt E5KIY2). Description: Inhibition of NDM1 in Escherichia coli clinical isolates assessed as potentiation of meropenem -induced antibacterial activity by measuring fractional inhibitory concentration index at 64 ug/ml incubated at 37 degC for 18 hrs by spectrophotometry based checkerboard microdilution assay.
Test [3] has the same target. Description: Inhibition of NDM1 in Escherichia coli clinical isolates assessed as potentiation of cefazolin-induced antibacterial activity by measuring combination MIC at >256 ug/ml incubated at 37 degC for 18 hrs by spectrophotometry based checkerboard microdilution assay.
The target is the same in test [4]. The test can be described thus: Inhibition of NDM1 in Escherichia coli clinical isolates assessed as potentiation of meropenem -induced antibacterial activity by measuring fractional inhibitory concentration index at 32 ug/ml incubated at 37 degC for 18 hrs by spectrophotometry based checkerboard microdilution assay.
For test [5] the target is unchanged. Description: Inhibition of NDM1 in Escherichia coli clinical isolates assessed as potentiation of meropenem -induced antibacterial activity by measuring combination MIC at 64 ug/ml incubated at 37 degC for 18 hrs by spectrophotometry based checkerboard microdilution assay.
Test [6] has as its system Bacteria. Description: Inhibition of bacterial NDM1 expressed in Escherichia coli BL21 (DE3) expressing pET-24a-blaNDM-1 assessed as potentiation of cefotaxime-induced antibacterial activity by measuring fractional inhibitory concentration index at 0.25 ug/ml incubated at 37 degC for 18 hrs by spectrophotometry based checkerboard microdilution assay.
In test [7] the target is Beta-lactamase NDM-1 (Escherichia coli) (UniProt E5KIY2). The test can be described thus: Inhibition of NDM1 in Escherichia coli clinical isolates assessed as potentiation of cefazolin-induced antibacterial activity by measuring fractional inhibitory concentration index at >256 ug/ml incubated at 37 degC for 18 hrs by spectrophotometry based checkerboard microdilution assay.

The test system of test [8] is Bacteria. Description: Inhibition of bacterial NDM1 expressed in Escherichia coli BL21 (DE3) expressing pET-24a-blaNDM-1 assessed as potentiation of meropenem-induced antibacterial activity by measuring fractional inhibitory concentration index at 0.5 ug/ml incubated at 37 degC for 18 hrs by spectrophotometry based checkerboard microdilution assay.
In test [9] the test system is Bacteria. The test can be described thus: Inhibition of bacterial NDM1 expressed in Escherichia coli BL21 (DE3) expressing pET-24a-blaNDM-1 assessed as potentiation of meropenem-induced antibacterial activity by measuring combination MIC at 0.5 ug/ml incubated at 37 degC for 18 hrs by spectrophotometry based checkerboard microdilution assay.
In test [10] the test system is Bacteria. The test can be described thus: Inhibition of bacterial NDM1 expressed in Escherichia coli BL21 (DE3) expressing pET-24a-blaNDM-1 assessed as potentiation of ampicillin-induced antibacterial activity by measuring combination MIC at 0.25 ug/ml incubated at 37 degC for 18 hrs by spectrophotometry based checkerboard microdilution assay.
Test [11] deals with Bacteria. The test can be described thus: Inhibition of bacterial NDM1 expressed in Escherichia coli BL21 (DE3) expressing pET-24a-blaNDM-1 assessed as potentiation of meropenem-induced antibacterial activity by measuring fractional inhibitory concentration index at 64 ug/ml incubated at 37 degC for 18 hrs by spectrophotometry based checkerboard microdilution assay.
The test system of test [12] is Bacteria. The test can be described thus: Inhibition of bacterial NDM1 expressed in Escherichia coli BL21 (DE3) expressing pET-24a-blaNDM-1 assessed as potentiation of cefazolin-induced antibacterial activity by measuring combination MIC at 0.25 ug/ml incubated at 37 degC for 18 hrs by spectrophotometry based checkerboard microdilution assay.
Test [13] has as its target Beta-lactamase NDM-1 (Escherichia coli) (UniProt E5KIY2). Description: Inhibition of NDM1 in Escherichia coli clinical isolates assessed as potentiation of cefotaxime-induced antibacterial activity by measuring fractional inhibitory concentration index at >256 ug/ml incubated at 37 degC for 18 hrs by spectrophotometry based checkerboard microdilution assay.
The target is the same in test [14]. The test can be described thus: Inhibition of NDM1 in Escherichia coli clinical isolates assessed as potentiation of meropenem -induced antibacterial activity by measuring combination MIC at 32 ug/ml incubated at 37 degC for 18 hrs by spectrophotometry based checkerboard microdilution assay.
Test [15] shares this target. The test can be described thus: Inhibition of NDM1 in Escherichia coli clinical isolates assessed as potentiation of cefotaxime-induced antibacterial activity by measuring combination MIC at >256 ug/ml incubated at 37 degC for 18 hrs by spectrophotometry based checkerboard microdilution assay.
Test [16] has the same target. The test can be described thus: Inhibition of NDM1 in Escherichia coli clinical isolates assessed as potentiation of meropenem-induced antibacterial activity by measuring reduction in meropenem MIC incubated at 37 degC for 18 hrs by spectrophotometry based checkerboard microdilution assay.
Test [17] can be described thus: Competitive inhibition of bacterial NDM1 expressed in Escherichia coli JM109 (DE3) pre-incubated for 10 mins before nitrocefin substrate addition by spectrophotometry. Details: species or system Bacteria.
Test [18] relates to Bacteria. The test can be described thus: Competitive inhibition of bacterial NDM1 expressed in Escherichia coli JM109 (DE3) at 200 uM pre-incubated for 10 mins before nitrocefin substrate addition by spectrophotometry.
The subject of test [19] is Bacteria. Description: Inhibition of bacterial NDM1 expressed in Escherichia coli BL21 (DE3) expressing pET-24a-blaNDM-1 assessed as potentiation of meropenem-induced antibacterial activity by measuring combination MIC at 64 ug/ml incubated at 37 degC for 18 hrs by spectrophotometry based checkerboard microdilution assay.
For test [20], the system named is Bacteria. The test can be described thus: Inhibition of bacterial NDM1 expressed in Escherichia coli BL21 (DE3) expressing pET-24a-blaNDM-1 assessed as potentiation of ampicillin-induced antibacterial activity by measuring fractional inhibitory concentration index at 0.25 ug/ml incubated at 37 degC for 18 hrs by spectrophotometry based checkerboard microdilution assay.

Test [21] deals with Bacteria. The test can be described thus: Inhibition of bacterial NDM1 expressed in Escherichia coli BL21 (DE3) expressing pET-24a-blaNDM-1 assessed as potentiation of cefotaxime-induced antibacterial activity by measuring combination MIC at 0.25 ug/ml incubated at 37 degC for 18 hrs by spectrophotometry based checkerboard microdilution assay.
For test [22], the system named is Bacteria. The test can be described thus: Inhibition of bacterial NDM1 expressed in Escherichia coli BL21 (DE3) expressing pET-24a-blaNDM-1 assessed as potentiation of cefazolin-induced antibacterial activity by measuring fractional inhibitory concentration index at 0.25 ug/ml incubated at 37 degC for 18 hrs by spectrophotometry based checkerboard microdilution assay.

Test [23] has as its system Escherichia coli. The test can be described thus: Antibacterial activity in Escherichia coli clinical isolates endogenously expressing NDM1 incubated at 37 degC for 18 hrs by spectrophotometry. Format: functional.
Test [24] deals with Escherichia coli. The test can be described thus: Antibacterial activity in Escherichia coli BL21 (DE3) expressing pET-24a-blaNDM-1 incubated at 37 degC for 18 hrs by spectrophotometry. Format: functional.

Consider twelve molecules from ChEMBL document CHEMBL4130619, “Structure-Based Virtual Screening for the Discovery of Novel Inhibitors of New Delhi Metallo-β-lactamase-1” (ACS Med Chem Lett, 2018).

≈ marks a conversion by molar mass, not a printed value. Where only a bound is given, the exact number is not on record here.

On to `Sc1nncn1NCc1cccc(Br)c1`, for which the fold change (FC) (in the test on Bacteria [1]; in [16]) was 4 each time. The fractional inhibitory concentration index (FICI) in test [2] was under 0.501; in test [4] it was under 0.313; with Bacteria [6] it was under 0.501; in test [7], over 1; with Bacteria [8], under 0.501; in the test with Bacteria [11] it was under 0.375. Also, the results for the fractional inhibitory concentration index (FICI) (in test [13]; in the test with Bacteria [20]; with Bacteria [22]) were over 1, under 0.501 and under 0.501, respectively. Also, the MIC in test [3] stood at 2050 µg/mL; in [5] it was 64 µg/mL; in the test on Bacteria [9], 0.5 µg/mL; in the test on Bacteria [10] it was 1020 µg/mL; with Bacteria [12], 32 µg/mL; in [14] it was 32 µg/mL. The MIC in test [15] came out at 1020 µg/mL; in the test with Bacteria [19], 0.25 µg/mL; in the test with Bacteria [21], 4 µg/mL. Moreover, in test [17], the inhibitory constant (Ki) was determined as 1 µM. The molecule also gave an inhibition in the test with Bacteria [18] of over 50%.
Molecule `O=C(CS(=O)(=O)c1ccccc1)NC1CCCCC1` yielded a Ki in test [17] of 52 µM. The same molecule came in with an inhibition with Bacteria [18] of over 50%.
The like results for `O=C(O)CC(Sc1c[nH]c2ccccc12)C(=O)O` (stereo not drawn) were, in that order, 68 µM and over 50%.
For the molecule `Nc1nnnn1NCc1cccc(Cl)c1Cl`, the inhibition constant Ki in test [17] came to 67 µM. The inhibition with Bacteria [18] is over 50%.
As to `CC1(C)S[C@@H]2[C@H](NC(=O)[C@H](N)c3ccccc3)C(=O)N2[C@H]1C(=O)O` [AMPICILLIN], the MIC was over 32800 µg/mL against Escherichia coli [23] and 1020 to 2050 µg/mL (≈ 2930 to 5860 µM) in the test on Escherichia coli [24].
The like results for `CO/N=C(\C(=O)N[C@@H]1C(=O)N2C(C(=O)O)=C(COC(C)=O)CS[C@H]12)c1csc(N)n1` [CEFOTAXIME] were, in that order, 1020 µg/mL (≈ 2250 µM) and 8 µg/mL (≈ 17.6 µM).
The like results for `C[C@@H](O)[C@H]1C(=O)N2C(C(=O)O)=C(S[C@@H]3CN[C@H](C(=O)N(C)C)C3)[C@H](C)[C@H]12` [MEROPENEM] were, in that order, 128 µg/mL (≈ 334 µM) and 1 µg/mL (≈ 2.61 µM).
With `Cc1nnc(SCC2=C(C(=O)O)N3C(=O)[C@@H](NC(=O)Cn4cnnn4)[C@H]3SC2)s1` [CEFAZOLIN], the MIC against Escherichia coli [24] was at least 32 µg/mL.
The molecule `Nc1ncnc2c1nc(S(=O)(=O)O)n2Cc1ccccc1` registered an inhibition constant (Ki) in test [17] of 65 µM. In the test with Bacteria [18], this molecule yielded an inhibition of over 50%.
In [17], `Cc1ccc(-n2nnnc2CS(=O)(=O)c2ccccc2)cc1` registered a Ki of 71 µM. The same molecule returned an inhibition with Bacteria [18] of over 50%.
For `Cn1c(SCC(=O)O)nnc1-c1ccc(N)cc1`, the inhibition constant (Ki) in test [17] turned out to be 85 µM. In addition, the inhibition in the test with Bacteria [18] is over 50%.
The like results for `O=C(O)CN1C(=O)S/C(=C\c2ccccc2Br)C1=O` were, in that order, 76 µM and over 50%.

For orientation: Ki means a measure of affinity in units of concentration, obtained from inhibition or displacement. The inhibition is how much of the control response was suppressed. A low value points to a weak effect.
